Experiments:
α1 adrenoceptor [1] = test: α1 adrenoceptor affinity, prazosin (PRA) binding
Protocol: (§1) The activities are expressed as pKi values (-log Ki values; Ki being the binding constant). The sigma receptor binding was assessed by the 1,3-di-o-tolylguanidine (DTG) binding as described by Fox et al., Eur. J. Pharmacol., 193, 139-143, 1991. The α1 adrenoceptor affinity was assessed by the prazosin (PRA) binding as described by de Boer et al., Arzneim. Forsch., 40, 550-554, 1990.

sigma receptor [2] = test: sigma receptor binding, 1,3-di-o-tolylguanidine (DTG) binding; settings: 1,3-di-o-tolylguanidine binding
Protocol: as §1

α1 adrenoceptor [3] = test: α1 adrenoceptor activity of the prior art compounds (statement in background); settings: in words
sigma receptor [4] = settings: in words; disclosed in WO 91/09594; cited from earlier work
[5] = in words; literature (Tamminga and Gerlach); cited from earlier work

Row | Structure (SMILES) | PRA pKi (-log Ki) (α1 adrenoceptor [1]) | DTG pKi (-log Ki) (sigma receptor [2]) | α1 adrenoceptor activity (α1 adrenoceptor [3]) | sigma receptor affinity (sigma receptor [4]) | induction of orthostatic hypotension [5]
1 | c1ccc(CCCN2CCN(c3ccccc3)CC2)cc1 [Compound 46 of WO 91/09594] | 8.7 | 8.2 | possess α1 adrenoceptor activity | displaying sigma receptor affinity | 
2 | c1ccc(CCCCN2CCN(Cc3ccccc3)CC2)cc1 [Compound 79 of WO 91/09594] | 7.4 | 8.6 | possess α1 adrenoceptor activity | displaying sigma receptor affinity | 
3 | Cl.Cl.c1ccc(CCCN2CCN(CCOCc3ccccc3)CC2)cc1 [Compound of Example 1, 1-[2-(phenylmethoxy)ethyl]-4-(3-phenylpropyl)piperazine dihydrochloride] | 5.7 | 8.7 |  |  | 
4 | CN1CCN(C2=Nc3cc(Cl)ccc3Nc3ccccc32)CC1 [clozapine] |  |  |  |  | induction of orthostatic hypotension

From patent publication US5281598A, “Piperazine derivatives” (Akzo N.V., priority 1992, dated 1994)
